Data taken from PMC7377239, “Cardiovascular Effects of Polychlorinated Biphenyls and Their Major Metabolites” (Environmental Health Perspectives, 2020).
Where a name gives a salt, the structure may show the parent alone. Read-outs that look alike come from different tables or passages of the source.

Columns and labels:
[1] = test system: iCell endothelial cells (human iPSC-derived ECs); assay: High-content imaging cytotoxicity in iCell endothelial cells, 24 h; format: cell-based; settings: Homo sapiens, Endothelial cell, iPSC-EC, 24 hr; for viability at 0.1 µM / activity at 0.1 µM: 0.10 µM; for minimal effective concentration: top concentration 100.00 µM
How it was run: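 Readouts were vehicle-normalised and fitted to a four-parameter logistic model. POD was set at one SD beyond 0.5% DMSO control means, and 100 µM was assigned when no response was seen. Cells were monolayers of iCell endothelial cells imaged after 24 h compound exposure using nuclear, mitochondrial and calcein dyes.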

[2] = test system: iCell endothelial cells (human iPSC-derived ECs); assay: Tube formation (tubulogenesis) assay in iCell endothelial cells, 18 h; format: cell-based; settings: Homo sapiens, Endothelial cell, iPSC-EC tube formation, 18 hr; for activity at 0.1 µM: 0.10 µM; for minimal effective concentration: top concentration 100.00 µM
How it was run: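 Tube formation was measured by calcein AM imaging after overnight compound exposure (37°C, 0.5% DMSO vehicle) of human iPSC-derived ECs, 7,500/well, on reduced-growth-factor Geltrex in starvation medium. Vehicle-normalized data fitted to four-parameter logistic; POD set at one vehicle SD; without response, 100 μM taken as NOAEL.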

[3] = 0.00 µM control = 100.00, read-out: endo.cyto.24hr
[4] = 0.00 µM control = 100.00, read-out: endo.mito.24hr
[5] = 0.00 µM control = 100.00, read-out: endo.mitoint.24hr
[6] = 0.00 µM control = 100.00, read-out: endo.nma.24hr
[7] = 0.00 µM control = 100.00, read-out: endo.tc.24hrs
[8] = read-out: endo.mitoint.24hr POD
[9] = 0.00 µM control = 100.00, read-out: endo.mtl.18hr
[10] = 0.00 µM control = 100.00, read-out: endo.tlps.18hr
[11] = 0.00 µM control = 100.00, read-out: endo.tta.18hr
[12] = 0.00 µM control = 100.00, read-out: endo.ttl.18hr

Oc1ccc(O)c(-c2ccc(Cl)cc2)c1 [2',5'-DiOH PCB3]
viability at 0.01 µM [1, 3]: 90.8%
activity at 0.01 µM [1, 4]: 91.1%
activity at 0.01 µM [1, 5]: 127%
activity at 0.01 µM [1, 6]: 103%
viability at 0.01 µM [1, 7]: 90.8%
viability at 0.1 µM [1, 3]: 93.4%
activity at 0.1 µM [1, 4]: 94%
activity at 0.1 µM [1, 5]: 109%
activity at 0.1 µM [1, 6]: 101%
viability at 0.1 µM [1, 7]: 93.5%
viability at 1 µM [1, 3]: 99.2%
activity at 1 µM [1, 4]: 99.2%
activity at 1 µM [1, 5]: 104%
activity at 1 µM [1, 6]: 98.6%
viability at 1 µM [1, 7]: 99.2%
viability at 10 µM [1, 3]: 86.5%
activity at 10 µM [1, 4]: 86.6%
activity at 10 µM [1, 5]: 108%
activity at 10 µM [1, 6]: 101%
viability at 10 µM [1, 7]: 86.5%
viability at 100 µM [1, 3]: 12.2%
activity at 100 µM [1, 4]: 2.34%
activity at 100 µM [1, 5]: 28.7%
activity at 100 µM [1, 6]: 184%
viability at 100 µM [1, 7]: 17%
minimal effective concentration ([1]; read-out: endo.cyto.24hr POD): 6.71 µM
minimal effective concentration ([1]; read-out: endo.mito.24hr POD): 6.71 µM
minimal effective concentration [1, 8]: 44.6 µM
minimal effective concentration ([1]; read-out: endo.nma.24hr POD): 13.7 µM
minimal effective concentration ([1]; read-out: endo.tc.24hrs POD): 5.78 µM
activity at 0.01 µM [2, 9]: 99.4%
activity at 0.01 µM [2, 10]: 100%
activity at 0.01 µM [2, 11]: 127%
activity at 0.01 µM [2, 12]: 115%
activity at 0.1 µM [2, 9]: 104%
activity at 0.1 µM [2, 10]: 103%
activity at 0.1 µM [2, 11]: 104%
activity at 0.1 µM [2, 12]: 98.5%
activity at 1 µM [2, 9]: 62%
activity at 1 µM [2, 10]: 66.5%
activity at 1 µM [2, 11]: 60.7%
activity at 1 µM [2, 12]: 55%
activity at 10 µM [2, 9]: 61.7%
activity at 10 µM [2, 10]: 30.6%
activity at 10 µM [2, 11]: 64.9%
activity at 10 µM [2, 12]: 63%
activity at 100 µM [2, 9]: 58.4%
activity at 100 µM [2, 10]: 7.76%
activity at 100 µM [2, 11]: 0.41%
activity at 100 µM [2, 12]: 0.74%
minimal effective concentration ([2]; read-out: endo.mtl.18hr POD): 0.47 µM
minimal effective concentration ([2]; read-out: endo.tlps.18hr POD): 0.53 µM
minimal effective concentration ([2]; read-out: endo.tta.18hr POD): 1.63 µM
minimal effective concentration ([2]; read-out: endo.ttl.18hr POD): 1.51 µM

O=S(=O)(O)Oc1ccc(-c2ccc(Cl)cc2)cc1 [4'-yl PCB 3 sulfate]
viability at 0.01 µM [1, 3]: 101%
activity at 0.01 µM [1, 4]: 101%
activity at 0.01 µM [1, 5]: 114%
activity at 0.01 µM [1, 6]: 99.9%
viability at 0.01 µM [1, 7]: 101%
viability at 0.1 µM [1, 3]: 101%
activity at 0.1 µM [1, 4]: 101%
activity at 0.1 µM [1, 5]: 103%
activity at 0.1 µM [1, 6]: 99.6%
viability at 0.1 µM [1, 7]: 101%
viability at 1 µM [1, 3]: 101%
activity at 1 µM [1, 4]: 101%
activity at 1 µM [1, 5]: 100%
activity at 1 µM [1, 6]: 98.8%
viability at 1 µM [1, 7]: 101%
viability at 10 µM [1, 3]: 101%
activity at 10 µM [1, 4]: 102%
activity at 10 µM [1, 5]: 98%
activity at 10 µM [1, 6]: 98.8%
viability at 10 µM [1, 7]: 101%
viability at 100 µM [1, 3]: 91.5%
activity at 100 µM [1, 4]: 91.9%
activity at 100 µM [1, 5]: 106%
activity at 100 µM [1, 6]: 104%
viability at 100 µM [1, 7]: 91.5%
minimal effective concentration ([1]; read-out: endo.cyto.24hr POD): 100 µM
minimal effective concentration ([1]; read-out: endo.mito.24hr POD): 100 µM
minimal effective concentration [1, 8]: 100 µM
minimal effective concentration ([1]; read-out: endo.nma.24hr POD): 100 µM
minimal effective concentration ([1]; read-out: endo.tc.24hrs POD): 100 µM
activity at 0.01 µM [2, 9]: 99.2%
activity at 0.01 µM [2, 10]: 113%
activity at 0.01 µM [2, 11]: 157%
activity at 0.01 µM [2, 12]: 149%
activity at 0.1 µM [2, 9]: 105%
activity at 0.1 µM [2, 10]: 129%
activity at 0.1 µM [2, 11]: 138%
activity at 0.1 µM [2, 12]: 134%
activity at 1 µM [2, 9]: 98.2%
activity at 1 µM [2, 10]: 137%
activity at 1 µM [2, 11]: 128%
activity at 1 µM [2, 12]: 120%
activity at 10 µM [2, 9]: 74.7%
activity at 10 µM [2, 10]: 85.4%
activity at 10 µM [2, 11]: 81.2%
activity at 10 µM [2, 12]: 76.8%
activity at 100 µM [2, 9]: 60.3%
activity at 100 µM [2, 10]: 28%
activity at 100 µM [2, 11]: 41.8%
activity at 100 µM [2, 12]: 44.3%
minimal effective concentration ([2]; read-out: endo.mtl.18hr POD): 4.33 µM
minimal effective concentration ([2]; read-out: endo.tlps.18hr POD): 11.7 µM
minimal effective concentration ([2]; read-out: endo.tta.18hr POD): 16.8 µM
minimal effective concentration ([2]; read-out: endo.ttl.18hr POD): 11 µM
